Measured values reported in ChEMBL document CHEMBL3886816, “Substituted 5-(3,5-dimethylisoxazol-4-yl)indoline-2-ones” (2016).

Columns and labels:
[1] = target: Bromodomain-containing protein 4 (Homo sapiens, UniProt O60885); assay: (§1) Time-Resolved Fluorescence Resonance Energy Transfer (TR-FRET) Assay: The assay was carried out in binding mixtures of the bromodomain protein, 0-10 μM compounds and tetra-acetylated histone peptide (SGRGAC.KGGAC.KGLGAC.KGGAAC.[…]-biotin) in buffer containing 25 mM HEPES pH 7.5, 100 mM NaCl, 0.1% BSA, 0.05% CHAPS, and detection reagents. […] Upon further incubation for 1 hr, the TR-FRET signals were recorded on a BMG PHERAstar FS instrument.
[2] = target: Bromodomain testis-specific protein (Homo sapiens, UniProt Q58F21); assay: as §1
[3] = target: Bromodomain-containing protein 2 (Homo sapiens, UniProt P25440); assay: as §1
[4] = target: Bromodomain-containing protein 3 (Homo sapiens, UniProt Q15059); assay: as §1
Sequence of Bromodomain-containing protein 3 (Q15059 whole entry): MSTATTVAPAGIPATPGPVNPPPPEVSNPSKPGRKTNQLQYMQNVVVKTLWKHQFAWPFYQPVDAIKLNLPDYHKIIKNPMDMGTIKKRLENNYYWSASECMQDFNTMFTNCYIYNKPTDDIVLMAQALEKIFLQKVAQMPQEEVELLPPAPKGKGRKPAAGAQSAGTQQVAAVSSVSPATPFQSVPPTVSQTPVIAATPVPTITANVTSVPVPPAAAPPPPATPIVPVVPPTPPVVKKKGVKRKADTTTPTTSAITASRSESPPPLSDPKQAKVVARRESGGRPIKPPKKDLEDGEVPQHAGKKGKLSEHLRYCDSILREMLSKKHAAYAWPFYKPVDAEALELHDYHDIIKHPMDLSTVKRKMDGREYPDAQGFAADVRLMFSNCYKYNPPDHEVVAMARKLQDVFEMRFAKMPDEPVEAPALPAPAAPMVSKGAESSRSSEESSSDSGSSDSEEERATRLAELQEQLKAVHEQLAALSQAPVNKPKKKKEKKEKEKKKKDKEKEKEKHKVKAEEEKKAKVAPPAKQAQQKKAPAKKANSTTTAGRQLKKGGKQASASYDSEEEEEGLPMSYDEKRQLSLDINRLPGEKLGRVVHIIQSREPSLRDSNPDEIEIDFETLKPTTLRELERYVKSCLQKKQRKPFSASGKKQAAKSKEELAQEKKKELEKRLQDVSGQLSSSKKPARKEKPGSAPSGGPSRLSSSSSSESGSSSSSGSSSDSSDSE

Sequence of Bromodomain-containing protein 2 (P25440 whole entry): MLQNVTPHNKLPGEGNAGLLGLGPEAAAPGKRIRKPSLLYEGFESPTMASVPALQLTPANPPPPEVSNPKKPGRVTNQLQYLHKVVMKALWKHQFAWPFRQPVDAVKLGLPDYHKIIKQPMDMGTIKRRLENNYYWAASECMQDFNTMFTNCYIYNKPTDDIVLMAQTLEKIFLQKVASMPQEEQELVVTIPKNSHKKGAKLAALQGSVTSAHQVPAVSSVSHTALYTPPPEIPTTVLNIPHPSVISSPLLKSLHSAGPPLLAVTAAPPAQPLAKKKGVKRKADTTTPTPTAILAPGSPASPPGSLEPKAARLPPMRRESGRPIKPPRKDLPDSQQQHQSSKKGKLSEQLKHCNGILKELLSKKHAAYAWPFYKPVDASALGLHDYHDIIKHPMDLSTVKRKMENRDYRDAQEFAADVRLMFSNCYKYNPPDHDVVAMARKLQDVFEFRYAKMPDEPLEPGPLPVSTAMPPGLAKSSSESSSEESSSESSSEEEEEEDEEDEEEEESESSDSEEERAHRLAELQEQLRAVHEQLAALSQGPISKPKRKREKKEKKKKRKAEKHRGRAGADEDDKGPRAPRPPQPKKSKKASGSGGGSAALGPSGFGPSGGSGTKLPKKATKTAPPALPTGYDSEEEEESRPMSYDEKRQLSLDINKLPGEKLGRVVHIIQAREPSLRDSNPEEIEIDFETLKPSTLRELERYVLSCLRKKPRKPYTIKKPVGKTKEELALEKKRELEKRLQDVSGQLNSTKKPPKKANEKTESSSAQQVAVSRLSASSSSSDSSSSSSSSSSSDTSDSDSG

Question: Which IC50 [1] does the source give for `C=CCCCC1(O)C(=O)Nc2ccc(-c3c(C)noc3C)cc21` (stereo not given) here?
Answer: 540 nM

Question: With `Cc1noc(C)c1-c1ccc2c(c1)C(O)(C1CCCCCC1)C(=O)N2` (stereo not given) as the molecule, how does the IC50 [1] read?
Answer: 98 nM

Question: How did the IC50 [1] turn out when `Cc1noc(C)c1-c1ccc2c(c1)C(OCCO)(C1CCCCC1)C(=O)N2` (stereo not given) was run?
Answer: 82 nM

Question: With `Cc1noc(C)c1-c1ccc2c(c1)C(C1CCCC1)(N1CCN(C)CC1)C(=O)N2` (stereo not given) as the molecule, how does the IC50 [1] read?
Answer: 180 nM

Question: Which results are given for `Cc1noc(C)c1-c1ccc2c(c1)C(N)(c1ccccc1)C(=O)N2` (single isomer, unassigned)?
Answer: IC50 [2]: 95 nM; IC50 [3]: 55 nM; IC50 [4]: 35 nM; IC50 [1]: 150 nM

Question: `C=CCCC1(O)C(=O)Nc2ccc(-c3c(C)noc3C)cc21` (stereo not given) was tested. Which IC50 [1] did it give?
Answer: 430 nM

Question: `Cc1noc(C)c1-c1ccc2c(c1)C(C1CCCCC1)(N1CCN(C)CC1)C(=O)N2` (stereo not given) was tested. Which IC50 [1] did it give?
Answer: 110 nM
